Assay results taken from PMC4368200, “Triclabendazole Sulfoxide Causes Stage-Dependent Embryolethality in Zebrafish and Mouse In Vitro” (PLoS ONE, 2015).
Read-outs that look alike come from different tables or passages of the source. Marks after values point to notes of the source that are not given here.

Columns and labels:
[1] = test system: rat embryos explanted at GD 9.5; assay: Postimplantation whole embryo culture (postWEC); set-up: species or system Sprague Dawley rats; key to Yolk sac circulation (median): 1 = few/abnormal vessels, 2 = delayed, 3 = complete vascularization; key to Morphological score: sum of structure scores; higher = more advanced differentiation; conditions: for Crown-rump length / Dysmorphogenic embryos / Morphological score / Somites number / Yolk sac circulation (median): 48 h; for postWEC LOAEC / postWEC NOAEC: GD 9.5-11.5, 48 h; for Teratogenic/dysmorphogenic potency, times lower than ABZ: postimplantation rodent embryos
Procedure: Nulliparous female rats, which were checked to be in the oestrus phase of the oestrous cycle, were housed with adult males (1:1) for 4 h, considering 2 h of light and 2 h of darkness. Mating was confirmed by the presence of sperm in vaginal smear, and the following 24 h were considered as gestational day 0 (GD 0).
Rat embryos were explanted and evaluated as described before with some variations. Briefly, embryos were explanted at GD 9.5 under sterile conditions. Two embryos were incorporated in flasks filled with 3.5 mL of culture medium which contained 20% of rat serum and 80% of serum mixture (Biochrom AG; Berlin, Germany). TCBZ, TCBZSO, ABZ and ABZSO were dissolved in dimethyl sulfoxide (DMSO; Sigma Aldrich Spain) and added to the culture medium to a final DMSO concentration of 0.1%. Culture flasks were oxygenated at the beginning of the culture with a gas mixture containing 12% O2 and after 38 h with a gas mixture containing 50% O2. Embryos were cultured at a temperature of 38°C, under rotation at a speed of 25 rpm (Noria R, Ovan Spain) for 48 h. After this period, embryos presenting yolk sac circulation and heartbeat were considered alive and were selected for further evaluation. The yolk sac circulation was evaluated according to the level of formation of blood vessels, giving a score of 1 in the cases in which few vessels were observed or the vascularization was abnormal, a score of 2 when a delay in vascularization was observed and 3 for complete vascularization, as previously described in [35]. Growth evaluation was assessed by crown-rump length and differentiation was evaluated by counting the number of somites and the morphological score. This score is the sum of the scores given to several embryonic structures depending on their differentiation stage, corresponding higher values with higher stages of differentiation. Furthermore, the percentage of dysmorphogenesis was calculated according to [36].
For the postWEC experiments, the selected concentrations were 140 μM, 278 μM and 556 μM for TCBZ and 267 μM, 666 μM and 932 μM for TCBZSO. The tested concentrations for ABZ analysis were 0.4 μM, 1.1 μM and 1.9 μM and for ABZSO were 3.4 μM, 9 μM, 12 μM, 14 μM and 16 μM.

[2] = test system: mouse embryos at the one-cell stage; assay: Preimplantation whole embryo culture (preWEC); set-up: species or system B6CBAF1 mice; conditions: for preWEC LOAEC (lethality): GD 0 to GD 4
Procedure: Female mice (6–12 weeks old) were superovulated by intraperitoneal injections of 5 IU of pregnant mare’s serum gonadotropin (Intervet, Spain) and 5 IU of human chorionic gonadotropin (Farma-Lepori, Spain), 48 h apart, and mated with adult males (2:1). Embryos at the one-cell stage were obtained 24 h after the second injection by tearing the oviducts in Hepes-buffered Chatot Ziomek Bavister medium with 150 U/ml hyaluronidase (HCZB) to dissociate the cumulus cells. Denuded embryos were then washed in HCZB and cultured for 96 h in drops of culture medium, potassium simplex optimized medium (KSOM) under oil at 37°C and 5% CO2, with or without the compounds of study. TCBZ and TCBZSO dissolved in DMSO were diluted in KSOM medium and the final DMSO concentration in the culture medium was […]. Control embryos were cultured in the presence of […]. Embryos were observed under the stereomicroscope every 24 h to assess if they were progressing normally until the blastocyst stage or, otherwise, they were arrested in a previous developmental stage. In each observation the number of embryos at the correct developmental stage (two-cells at 24 h, four-cells at 48 h, morula at 72 h and blastocyst at 96 h) were counted.
TCBZ and TCBZSO concentration ranges for the preWEC study were selected based on the results of the ZFET. The tested concentrations for this technique were 1 μM, 3 μM and 10 μM for TCBZ studies and 3 μM, 10 μM, 30 μM and 100 μM for TCBZSO studies.

[3] = humans, cited from earlier work

CSc1nc2cc(Cl)c(Oc3cccc(Cl)c3Cl)cc2[nH]1 [TCBZ, 5-chloro-6-(2,3-dichlorophenoxy)-2-(methylthio)benzimidazole]
Crown-rump length ([1]; 140 μM): 3.5 ± 0.2 mm | Dysmorphogenic embryos ([1]; 140 μM): 0% | Morphological score ([1]; 140 μM): 39.0 ± 1.5 | Somites number ([1]; 140 μM): 26.9 ± 1.1 | Yolk sac circulation (median) ([1]; 140 μM): 3.0 | Frequency of dysmorphogenesis: Branchial bars ([1]; 278 µM): 25% | Frequency of dysmorphogenesis: Flexion ([1]; 278 µM): 12.5% | Frequency of dysmorphogenesis: Head ([1]; 278 µM): 12.5% | Frequency of dysmorphogenesis: Otic vesicles ([1]; 278 µM): 12.5% | Frequency of dysmorphogenesis: Yolk sac ([1]; 278 µM): 62.5% | Crown-rump length ([1]; 278 μM): 3.2 ± 0.5 mm | Dysmorphogenic embryos ([1]; 278 μM): 62.5 ^* % | Morphological score ([1]; 278 μM): 35.1 ± 5.9 | Somites number ([1]; 278 μM): 25.7 ± 2.0 | Yolk sac circulation (median) ([1]; 278 μM): 1.0 ^* | Frequency of dysmorphogenesis: Branchial bars ([1]; 556 µM): 100% | Frequency of dysmorphogenesis: Flexion ([1]; 556 µM): 50% | Frequency of dysmorphogenesis: Head ([1]; 556 µM): 75% | Frequency of dysmorphogenesis: Heart ([1]; 556 µM): 12.5% | Frequency of dysmorphogenesis: Optic vesicles ([1]; 556 µM): 37.5% | Frequency of dysmorphogenesis: Yolk sac ([1]; 556 µM): 100% | Crown-rump length ([1]; 556 μM): 2.6 ± 0.6 mm | Dysmorphogenic embryos ([1]; 556 μM): 100% | Morphological score ([1]; 556 μM): 21.0 ± 3.0 | Yolk sac circulation (median) ([1]; 556 μM): 1.0 ^* | postWEC LOAEC [1]: 278 µM | postWEC NOAEC [1]: 140 µM | Teratogenic/dysmorphogenic potency, times lower than ABZ [1]: approximately 250 times | Teratogenic/dysmorphogenic potency, times lower than ABZ ([1]; listed as Triclabendazole): 250 times | Lethality 2-cells 24 h ([2]; 1 μM): 4.2% | Lethality 4-cells 48 h ([2]; 1 μM): 8.3% | Lethality Blastocyst 96 h ([2]; 1 μM): 18.8% | Lethality Morula 72 h ([2]; 1 μM): 8.3% | Adverse effects in preimplantation embryos ([2]; 3 μM): did not produce any significant effect | Lethality 2-cells 24 h ([2]; 3 μM): 6.3% | Lethality 4-cells 48 h ([2]; 3 μM): 6.3% | Lethality Blastocyst 96 h ([2]; 3 μM): 20.8% | Lethality Morula 72 h ([2]; 3 μM): 10.4% | Lethality 2-cells 24 h ([2]; 10 μM): 18.4 ^* % | Lethality 4-cells 48 h ([2]; 10 μM): 24.5 ^* % | Lethality Blastocyst 96 h ([2]; 10 μM): 36.7% | Lethality Morula 72 h ([2]; 10 μM): 24.5 ^* % | preWEC LOAEC (lethality) [2]: 10 µM | Lethal concentration in preimplantation embryos, times higher than in vivo relevant concentrations ([2]; preWEC): 10 times | Cmax ([3]; therapeutical dose of 10 mg/kg TCBZ, reviewed by 22, read-out: TCBZ Cmax in plasma): 1.16 µM

C[S+]([O-])c1nc2cc(Oc3cccc(Cl)c3Cl)c(Cl)cc2[nH]1 (stereo not drawn) [TCBZSO, Triclabendazole sulfoxide]
Crown-rump length ([1]; 267 μM): 3.4 ± 0.4 mm | Dysmorphogenic embryos ([1]; 267 μM): 0% | Morphological score ([1]; 267 μM): 37.9 ± 2.8 | Somites number ([1]; 267 μM): 26.6 ± 1.6 | Yolk sac circulation (median) ([1]; 267 μM): 3.0 | Frequency of dysmorphogenesis: Branchial bars ([1]; 666 µM): 11.1% | Frequency of dysmorphogenesis: Head ([1]; 666 µM): 33.3% | Frequency of dysmorphogenesis: Optic vesicles ([1]; 666 µM): 33.3% | Frequency of dysmorphogenesis: Yolk sac ([1]; 666 µM): 33.3% | Crown-rump length ([1]; 666 μM): 3.1 ± 0.7 mm | Dysmorphogenic embryos ([1]; 666 μM): 55.6 ^* % | Morphological score ([1]; 666 μM): 30.8 ± 7.1 | Somites number ([1]; 666 μM): 25.1 ± 2.1 | Yolk sac circulation (median) ([1]; 666 μM): 3.0 ^* | Frequency of dysmorphogenesis: Branchial bars ([1]; 932 µM): 100% | Frequency of dysmorphogenesis: Flexion ([1]; 932 µM): 87.5% | Frequency of dysmorphogenesis: Head ([1]; 932 µM): 75% | Frequency of dysmorphogenesis: Limbs ([1]; 932 µM): 12.5% | Frequency of dysmorphogenesis: Optic vesicles ([1]; 932 µM): 62.5% | Frequency of dysmorphogenesis: Otic vesicles ([1]; 932 µM): 25% | Frequency of dysmorphogenesis: Yolk sac ([1]; 932 µM): 100% | Crown-rump length ([1]; 932 μM): 2.3 ± 0.5 mm | Dysmorphogenic embryos ([1]; 932 μM): 100 ^* % | Morphological score ([1]; 932 μM): 20.3 ± 2.7 | Yolk sac circulation (median) ([1]; 932 μM): 1.0 ^* | postWEC LOAEC [1]: 666 µM | postWEC NOAEC [1]: 267 µM | Teratogenic potency, times less potent than parent compound TCBZ ([1]; postWEC): 2.5 times | Adverse effects in preimplantation embryos ([2]; 3 μM): did not induce adverse effects | Lethality 2-cells 24 h ([2]; 3 μM): 4.2% | Lethality 4-cells 48 h ([2]; 3 μM): 14.6% | Lethality Blastocyst 96 h ([2]; 3 μM): 31.3% | Lethality Morula 72 h ([2]; 3 μM): 16.7% | Lethality 2-cells 24 h ([2]; 10 μM): 24.5 ^* % | Lethality 4-cells 48 h ([2]; 10 μM): 30.6 ^* % | Lethality Blastocyst 96 h ([2]; 10 μM): 55.1 ^* % | Lethality Morula 72 h ([2]; 10 μM): 36.7 ^* % | Lethality 2-cells 24 h ([2]; 30 μM): 24.5 ^* % | Lethality 4-cells 48 h ([2]; 30 μM): 79.6 ^* % | Lethality Blastocyst 96 h ([2]; 30 μM): 98 ^* % | Lethality Morula 72 h ([2]; 30 μM): 95.9 ^* % | Lethality 2-cells 24 h ([2]; 100 μM): 100 ^* % | Lethality 4-cells 48 h ([2]; 100 μM): 100 ^* % | Lethality Blastocyst 96 h ([2]; 100 μM): 100 ^* % | Lethality Morula 72 h ([2]; 100 μM): 100 ^* % | preWEC LOAEC (lethality) [2]: 10 µM | Cmax ([3]; 10 mg/kg TCBZ, depending on concomitant food intake, reviewed by 22, 10 mg/kg, read-out: TCBZSO Cmax in plasma): 38.6 µM | Cmax ([3]; 10 mg/kg TCBZ, calculated from ref 43, read-out: TCBZSO Cmax in plasma): 26.6 µM
